From publication PMC5654414, “In vitro and in vivo comparative and competitive activity-based protein profiling of GH29 α-L-fucosidases” (Chemical Science, 2015)

Legend:
[1] = target: T1, recombinant human FUCA1 (human lysosomal α-L-fucosidase) (Homo sapiens, UniProt P04066); experiment: In vitro inhibition of FUCA1 activity, 4-methylumbelliferyl-α-L-fucopyranoside substrate, lysates of COS-7 cells over-expressing enzyme; assay type: biochemical
T1 construct: expressed in transfected cells; host or cells: COS-7
T1 sequence (P04066 32-466): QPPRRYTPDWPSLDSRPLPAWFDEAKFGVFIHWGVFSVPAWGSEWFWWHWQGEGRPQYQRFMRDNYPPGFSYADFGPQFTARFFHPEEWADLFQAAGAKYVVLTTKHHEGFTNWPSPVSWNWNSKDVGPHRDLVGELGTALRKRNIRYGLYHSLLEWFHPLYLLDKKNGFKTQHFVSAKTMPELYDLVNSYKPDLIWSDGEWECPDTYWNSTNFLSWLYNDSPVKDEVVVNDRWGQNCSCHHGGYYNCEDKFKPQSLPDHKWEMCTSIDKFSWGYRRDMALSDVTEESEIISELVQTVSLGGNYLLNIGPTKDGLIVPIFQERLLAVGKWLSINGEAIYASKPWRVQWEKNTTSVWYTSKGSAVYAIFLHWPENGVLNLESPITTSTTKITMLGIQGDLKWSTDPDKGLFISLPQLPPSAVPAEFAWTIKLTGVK
Experimental: Having the cyclophellitol aziridine inhibitors and probes in hand, we determined their inhibitory potency towards the human lysosomal α-L-fucosidase, FUCA1.
The enzymatic activity of α-L-fucosidase was assayed at 37 °C by incubating with 1.5 mM 4-methylumbelliferyl-α-L-fucopyranoside as substrate in 150 mM McIlvaine buffer, pH 4.5, supplemented with 0.1% (w/v) BSA. […] The reaction was quenched by adding excess NaOH–glycine (pH 10.6), after which fluorescence was measured with a fluorimeter LS55 (Perkin Elmer) using λEX 366 nm and λEM 445 nm.

[2] = target: T2, FUCA1 (recombinant human GH29 α-L-fucosidase per table title) (Homo sapiens, UniProt P04066); experiment: In situ inhibition of FUCA1 in living fibroblasts; assay type: cell-based
T2 construct: endogenous in cells; host or cells: fibroblasts
T2 sequence (P04066 32-466): T1 sequence (P04066 32-466)

FUCA1 = target: T3, FUCA1 (Homo sapiens, UniProt P04066); experiment: Fluorescent labeling kinetics, time course on SDS-PAGE; assay type: binding; design: expressed in transfected cells; host or cells: COS-7; settings: 10 nM probe, stoichiometric rhFUCA1, 4 °C
T3 sequence (P04066 32-466): T1 sequence (P04066 32-466)
Text: This rapid reaction with both 1 and 2 also precluded a classic determination of kinetic constants following a time-dependent decrease in detectable 4-methylumbelliferone (ESI Fig. S5b ^†).
Fig. S4. In vitro pH profile of recombinant FUCA1. A) In vitro labeling of COS-7 cell lysate containing over-expressed human FUCA1 at various pH with ABP 1. B) Relative in vitro labeling of FUCA1 with ABP 1 (closed squares) compared to relative enzymatic activity towards artificial 4-methylumbelliferyl-α-L-fucopyranoside substrate (open circles) at various pH. Data average of n = 3 experiments, ± standard deviation.
Fig. S5. In vitro inhibition kinetics of ABPs 1 and 2 towards recombinant human FUCA1. A) Stoichiometric in situ labeling of COS-7 lysate containing over-expressed human FUCA1 with 10 nM ABP 1 at 4°C and 37°C. B) Plots of Kobserved against the concentration of ABP 1 and 2. Rates determined through direct kinetic measurements of liberated 4-methylumbelliferone from 4-methylumbelliferyl-α-L-fucopyranoside substrate whilst in the presence of varying concentrations of ABP 1 and 2. […]

[3] = test system: purified α-L-fucosidase from Bacteroides thetaiotaomicron; experiment: In vitro ABP labeling of purified bacterial α-L-fucosidase; assay type: binding
Experimental: All pre-incubations and ABP labeling-reactions occurred for 30 min at 37 °C. Total lysates (50 μg), medium (500 μg) or purified protein preparations (5 μg) were labeled with 1 μM JJB256 1 or JJB244 2, dissolved in 150 mM McIlvaine buffer, pH 4.5, incubating for 30 min at 37 °C. For ABPP, protein preparations were pre-incubated with compounds 4 (100 μM), 6 (100 μM), 7–13 (1 or 5 mM, specified in the main text) prior to the addition of 100 nM fluorescent ABPs. Influence of pH on ABP labeling involved pre-incubation at pH 3–10 prior to addition of 100 nM ABP 1. Direct labeling of retaining β-glucosidases occurred at pH 5.0 in conjunction with 100 nM ABP JJB75. Samples were then denatured with 5× Laemmli buffer (50% (v/v) 1 M Tris–HCl, pH 6.8, 50% (v/v) 100% glycerol, 10% (w/v) DTT, 10% (w/v) SDS, 0.01% (w/v) bromophenol blue), boiled for 4 min at 100 °C, and separated by gel electrophoresis on 10% (w/v) SDS-PAGE gels running continuously at 90 V.[13],[14] Wet slab-gels were scanned on fluorescence using a Typhoon Variable Mode Imager (Amersham Biosciences) using λEX 488 nm and λEM 520 nm (band pass filter 40 nm) for green fluorescent JJB256 1 and λEX 532 nm and λEM 610 nM (band pass filter 30 nm) for red fluorescent JJB244 2 and JJB75.

IC50 [1]: 6.9 ± 0.8 nM | IC50 [2]: 28.9 ± 4.4 nM | completeness of labeling over time (FUCA1): near complete within the first minute | labeling of enzyme [3]: efficiently labels
SMILES: CC1=CC(C)=[N+]2C1=C(CCCCc1cn(CCCCCCCC(=O)N3[C@@H]4[C@@H](C)[C@@H](O)[C@@H](O)[C@H](O)[C@@H]43)nn1)c1c(C)cc(C)n1[B-]2(F)F [compound 1]
